Results on five molecules are retold here after patent US6680313B2, “Carbapenum derivatives” (Meiji Seika Kaisha, Ltd., priority 2000, dated 2004).

In brackets after ≈: the same amount, converted by molar mass.

Data set [1] concerns E. hirae ATCC 8043. Kind of data set: Antimicrobial activities (MIC, agar dilution). Format: cell-based. The note with it: Enterococcus hirae, ATCC8043, Sensitivity Disk agar-N+5% Horse blood, 10^6 CFU/ml, read-out: minimum inhibiting concentrations (MIC). On the procedure:
(§1) The minimum inhibiting concentrations (MIC, μg/ml) of representative compounds, among the novel carbapenem derivatives of the present invention, to various pathogenic bacteria were measured in accordance with the method described in CHEMOTHERAPY, vol. 16, No. 1, 99, 1968. The culture medium for the measurement is Sensitivity Disk agar-N+5% Horse blood, and the amount of inoculants used is 10^6 CFU/ml.

Data set [2] deals with S. pneumoniae PRC 9. Briefly: Antimicrobial activities (MIC, agar dilution). Format: cell-based. The note with it: Streptococcus pneumoniae, PRC9; S. pneumoniae PRC 9, Penicillin-hyperresistant strain; Sensitivity Disk agar-N+5% Horse blood; 10^6 CFU/ml; read-out: minimum inhibiting concentrations (MIC). As for the experimental part:
as §1

The subject of data set [3] is P. vulgaris GN 7919. Briefly: Antimicrobial activities (MIC, agar dilution). The note with it: Proteus vulgaris, GN7919, Sensitivity Disk agar-N+5% Horse blood, 10^6 CFU/ml, read-out: minimum inhibiting concentrations (MIC). Type of data set: cell-based. On the procedure:
as §1

Data set [4] concerns B. catarrhalis W-0500. Kind of data set: Antimicrobial activities (MIC, agar dilution). Format: cell-based. Conditions: Moraxella catarrhalis, W0500, Sensitivity Disk agar-N+5% Horse blood, 10^6 CFU/ml, read-out: minimum inhibiting concentrations (MIC). On the procedure: as §1
Data set [5] concerns C. freundii GN 346. Kind of data set: Antimicrobial activities (MIC, agar dilution). Type of data set: cell-based. The note with it: Citrobacter freundii, GN346, Sensitivity Disk agar-N+5% Horse blood, 10^6 CFU/ml, read-out: minimum inhibiting concentrations (MIC). As for the experimental part:
as §1

For data set [6], the system named is E. coli NIHJ JC-2. Briefly: Antimicrobial activities (MIC, agar dilution). Conditions: Escherichia coli, NIHJJC2, Sensitivity Disk agar-N+5% Horse blood, 10^6 CFU/ml, read-out: minimum inhibiting concentrations (MIC). Type of data set: cell-based. As for the experimental part: as §1
Data set [7] concerns E. faecalis W-73. Briefly: Antimicrobial activities (MIC, agar dilution). The note with it: Enterococcus faecalis, W73, Sensitivity Disk agar-N+5% Horse blood, 10^6 CFU/ml, read-out: minimum inhibiting concentrations (MIC). Type of data set: cell-based. On the procedure: as §1
In data set [8] the test system is K. pneumoniae PC 1602. Briefly: Antimicrobial activities (MIC, agar dilution). Type of data set: cell-based. Conditions: Klebsiella pneumoniae, PC1602, Sensitivity Disk agar-N+5% Horse blood, 10^6 CFU/ml, read-out: minimum inhibiting concentrations (MIC). As for the experimental part:
as §1

The test system of data set [9] is H. influenzae PRC 2. Kind of data set: Antimicrobial activities (MIC, agar dilution). Format: cell-based. The note with it: Haemophilus influenzae, PRC2, Sensitivity Disk agar-N+5% Horse blood, 10^6 CFU/ml, read-out: minimum inhibiting concentrations (MIC). On the procedure: as §1
Data set [10] relates to H. influenzae PRC 44. Kind of data set: Antimicrobial activities (MIC, agar dilution). Format: cell-based. The note with it: Haemophilus influenzae, PRC44, Sensitivity Disk agar-N+5% Horse blood, 10^6 CFU/ml, read-out: minimum inhibiting concentrations (MIC). On the procedure: as §1
Data set [11] concerns S. aureus 209P JC-1. Kind of data set: Antimicrobial activities (MIC, agar dilution). Format: cell-based. The note with it: Staphylococcus aureus, Sensitivity Disk agar-N+5% Horse blood, 10^6 CFU/ml, read-out: minimum inhibiting concentrations (MIC). As for the experimental part: as §1
For data set [12], the system named is S. epidermidis ATCC 14990. Kind of data set: Antimicrobial activities (MIC, agar dilution). Type of data set: cell-based. The note with it: Staphylococcus epidermidis, ATCC14990, Sensitivity Disk agar-N+5% Horse blood, 10^6 CFU/ml, read-out: minimum inhibiting concentrations (MIC). As for the experimental part: as §1
In data set [13] the test system is S. aureus M 126. Kind of data set: Antimicrobial activities (MIC, agar dilution). Type of data set: cell-based. The note with it: Staphylococcus aureus, M126; S. aureus M 126, Methicillin-hyperresistant strain; Sensitivity Disk agar-N+5% Horse blood; 10^6 CFU/ml; read-out: minimum inhibiting concentrations (MIC). On the procedure: as §1
For data set [14], the system named is mice (ICR, male). Briefly: Acute toxicity test. Type of data set: in vivo. The note with it: intravenous, 2000 mg/kg, three mice. As for the experimental part:
The compound of Example 5 according to the present invention was intraveneously administered at a dose of 2000 mg/kg to mice (ICR, male) (one group consisting of three mice).

In the case of `C[C@@H](O)[C@H]1C(=O)N2C(C(=O)O)=C(SCCN=CN)C[C@H]12` [Compound A, Imipenem, reference compound], the MIC was 0.78 µg/mL (≈ 2.61 µM) in data set [1]; 0.2 µg/mL (≈ 0.668 µM) in [2]; 0.1 µg/mL (≈ 0.334 µM) in [3]; 0.05 µg/mL (≈ 0.167 µM) in [4]; 0.2 µg/mL (≈ 0.668 µM) in data set [5]; 0.1 µg/mL (≈ 0.334 µM) in data set [6]. Moreover, the MIC in [7] was 0.78 µg/mL (≈ 2.61 µM); in data set [8], 0.2 µg/mL (≈ 0.668 µM); in [9], 0.78 µg/mL (≈ 2.61 µM); in data set [10], 12.5 µg/mL (≈ 41.8 µM); in data set [11] it was less than 0.025 µg/mL; in [12], less than 0.025 µg/mL. Moreover, in [13], the MIC was 25 µg/mL (≈ 83.5 µM).

As for `C[C@@H](O)[C@H]1C(=O)N2C(C(=O)[O-])=C(c3cn4cncc4s3)[C@H](C)[C@H]12.[Na+]` [Compound B, Sodium (1S,5R,6S)-6-((1R)-1-hydroxyethyl)-2-(imidazo[5,1-b]thiazol-2-yl)-1-methyl-1-carbapen-2-em-3-carboxylate, reference compound], the MIC worked out at 0.39 µg/mL in data set [1]; 0.2 µg/mL in data set [2]; 0.1 µg/mL in [3]; 0.1 µg/mL in data set [4]; 1.56 µg/mL in data set [5]; 0.2 µg/mL in data set [6]. For the same molecule, the MIC in [7] was 0.39 µg/mL; in [8], 0.1 µg/mL; in [9], less than 0.025 µg/mL; in data set [10] it was 0.2 µg/mL; in data set [11], less than 0.025 µg/mL; in data set [12] it was less than 0.025 µg/mL. Besides, the MIC in data set [13] was determined as 6.25 µg/mL.

Consider `C[C@@H](O)[C@H]1C(=O)N2C(C(=O)[O-])=C(c3cn4cnc(SCCN)c4s3)[C@H](C)[C@H]12.[Na+]` [Example 5, Sodium (1S,5R,6S)-2-[7-(2-aminoethyl)thioimidazo[5,1-b]thiazol-2-yl]-6-((1R)-1-hydroxyethyl)-1-methyl-1-carbapen-2-em-3-carboxylate], for which the MIC in data set [1] came to 0.39 µg/mL; in data set [2], 0.05 µg/mL; in [3], 0.2 µg/mL; in data set [4], 0.05 µg/mL; in data set [5], 1.56 µg/mL; in [6], 0.1 µg/mL. Besides, the MIC is 0.2 µg/mL in data set [7]; 0.1 µg/mL in [8]; 0.05 µg/mL in data set [9]; 0.2 µg/mL in data set [10]; less than 0.025 µg/mL in [11]; less than 0.025 µg/mL in [12]. Moreover, in data set [13], the MIC is 1.56 µg/mL. The “acute toxicity: survival” value in data set [14] is “all the mice survived”.

As for `C[C@@H](O)[C@H]1C(=O)N2C(C(=O)[O-])=C(c3cn4cnc(SCCF)c4s3)[C@H](C)[C@H]12.[Na+]` [Example 14, Sodium (1S,5R,6S)-2-[7-(2-fluoroethyl)thioimidazo[5,1-b]thiazol-2-yl]-6-((1R)-1-hydroxyethyl)-1-methyl-1-carbapen-2-em-3-carboxylate], the MIC in [1] was 0.2 µg/mL; in data set [2], 0.05 µg/mL; in data set [3], 0.78 µg/mL; in data set [4] it was 0.1 µg/mL; in data set [6], 1.56 µg/mL; in data set [7], 0.2 µg/mL. Further, the MIC in data set [8] was 1.56 µg/mL; in [9] it was less than 0.025 µg/mL; in [10], 0.025 µg/mL; in data set [11], less than 0.025 µg/mL; in data set [12], less than 0.025 µg/mL; in [13], 0.78 µg/mL.

`C[C@@H](O)[C@H]1C(=O)N2C(C(=O)[O-])=C(c3cn4cnc(SCCNC(=N)N)c4s3)[C@H](C)[C@H]12.[Na+]` [Example 20, Sodium (1S,5R,6S)-2-[7-(2-guanidinoethyl)thioimidazo[5,1-b]thiazol-2-yl]-6-((1R)-1-hydroxyethyl)-1-methyl-1-carbapen-2-em-3-carboxylate]: the MIC amounted to 0.2 µg/mL in [1]; 0.05 µg/mL in data set [2]; 0.39 µg/mL in data set [3]; 0.05 µg/mL in [4]; 1.56 µg/mL in data set [5]; 0.2 µg/mL in [6]. Moreover, the MIC in [7] is 0.2 µg/mL; in [8], 0.39 µg/mL; in data set [9], 0.05 µg/mL; in [10], 0.1 µg/mL; in data set [11], less than 0.025 µg/mL; in [12], less than 0.025 µg/mL. Besides, the MIC in data set [13] amounted to 0.78 µg/mL.
